The source of these data is PubChem BioAssay (NCI).

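A five-concentration, 48-hour dose response in 96-well plates underlies each endpoint, interpolated linearly between surrounding concentrations. TGI marks complete inhibition of growth.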

Some test systems named below: MOLT-4 leukemia; MDA-MB-231 breast; EKVX NSCLC; SK-MEL-5 melanoma; SR leukemia; SK-MEL-28 melanoma; MDA-N; HS 578T breast; SN12C renal; K-562 leukemia; LOX IMVI melanoma; RPMI-8226 leukemia; SF-295 CNS.
Test in all cases: growth of human tumour cells (NCI), 48 h

Turning to `O=C1C=C(c2ccccc2)O/C1=C\C(=O)c1ccc(Cl)cc1`, the TGI in the test on MOLT-4 leukemia was more than 100 µM; in the test with MDA-MB-231 breast, 32.7 µM; with EKVX NSCLC it was more than 100 µM; in the test with SK-MEL-5 melanoma it was 91.9 µM; in the test with SR leukemia, more than 100 µM; with SK-MEL-28 melanoma it was 38.5 µM. Further, the TGI is 38.7 µM in the test on MDA-N; 61.5 µM with HS 578T breast; 11.5 µM in the test with SN12C renal; 73 µM with K-562 leukemia; 30.1 µM with LOX IMVI melanoma; more than 100 µM with RPMI-8226 leukemia.

Consider `CN1CCN(Cc2nc3c(s2)CCc2sccc2-3)CC1`, for which the TGI is more than 100 µM in the test on MOLT-4 leukemia; more than 100 µM in the test on MDA-MB-231 breast; more than 100 µM with SF-295 CNS; more than 100 µM in the test on EKVX NSCLC; more than 100 µM in the test on SK-MEL-5 melanoma; 99.7 µM in the test on SR leukemia. Moreover, the TGI in the test with SK-MEL-28 melanoma was 73 µM; in the test with MDA-N, more than 100 µM; in the test with HS 578T breast, more than 100 µM; in the test with SN12C renal it was more than 100 µM; with K-562 leukemia, more than 100 µM; in the test on RPMI-8226 leukemia, more than 100 µM.

For `CC(=O)Oc1ccc2cc(-c3ccc(OC(C)=O)c(OC(C)=O)c3)c(=O)oc2c1`, the TGI in the test on MOLT-4 leukemia, in the test with MDA-MB-231 breast, with SF-295 CNS, with EKVX NSCLC, in the test on SR leukemia and with SK-MEL-28 melanoma was more than 100 µM each time. The TGI in the test on MDA-N, in the test on HS 578T breast, in the test with SN12C renal, with K-562 leukemia, with LOX IMVI melanoma and in the test with RPMI-8226 leukemia was more than 100 µM throughout.

Take `CN(C)CC1CCC/C(=C\c2ccccc2)C1=O` (configuration not stated): the TGI in the test with MOLT-4 leukemia was more than 100 µM; in the test on MDA-MB-231 breast, 4.18 µM; in the test on SF-295 CNS it was 35.2 µM; in the test on EKVX NSCLC, 33.7 µM; with SK-MEL-5 melanoma, 21.4 µM; with SR leukemia, more than 100 µM. The TGI with SK-MEL-28 melanoma was 6.04 µM; in the test with MDA-N, 8.93 µM; with HS 578T breast it was 9.87 µM; in the test on SN12C renal, 18.5 µM; in the test with LOX IMVI melanoma, 3.2 µM.

As to `O=c1[nH]c(=O)n(CCOc2ccc(Cl)cc2)cc1Nc1ccccc1`, the TGI in the test on MOLT-4 leukemia, in the test on SF-295 CNS, with EKVX NSCLC, in the test on SK-MEL-5 melanoma, in the test with SR leukemia and with SK-MEL-28 melanoma was more than 100 µM throughout. Also, the TGI in the test on MDA-N, in the test with HS 578T breast, in the test with SN12C renal, in the test on K-562 leukemia, in the test with LOX IMVI melanoma and with RPMI-8226 leukemia was more than 100 µM each time.

For the molecule `COc1cc(C2OC[C@@H]3C(=O)OC[C@H]23)cc(O)c1OC` (some centres not stated), the TGI with MOLT-4 leukemia, in the test with MDA-MB-231 breast, in the test on SF-295 CNS, in the test on EKVX NSCLC, in the test with SK-MEL-5 melanoma and with SR leukemia was more than 100 µM throughout. In addition, the TGI with MDA-N, with HS 578T breast, in the test on SN12C renal, in the test on K-562 leukemia, in the test on LOX IMVI melanoma and with RPMI-8226 leukemia was more than 100 µM each time.

For `Cc1ccsc1C(=S)Nc1ccc(Cl)c(/C=N/OC(C)C)c1`, the TGI in the test with MOLT-4 leukemia is 35.2 µM; in the test on MDA-MB-231 breast it was more than 100 µM; with SF-295 CNS it was more than 100 µM; in the test with EKVX NSCLC, more than 100 µM; with SK-MEL-5 melanoma, 75.4 µM; in the test with SR leukemia, 48.7 µM. Moreover, the TGI with SK-MEL-28 melanoma is more than 100 µM; in the test with MDA-N, more than 100 µM; with HS 578T breast it was more than 100 µM; in the test on SN12C renal, more than 100 µM; in the test with LOX IMVI melanoma it was more than 100 µM; in the test with RPMI-8226 leukemia, 34.1 µM.

Turning to `COC(=O)/N=[N+](\[O-])C(c1ccccc1)c1ccccc1`, the TGI in the test on MOLT-4 leukemia, in the test on MDA-MB-231 breast, in the test on EKVX NSCLC, in the test on SK-MEL-5 melanoma, in the test on SR leukemia and in the test on SK-MEL-28 melanoma was more than 100 µM throughout. Besides, the TGI in the test on MDA-N, in the test with HS 578T breast, in the test on SN12C renal, in the test with K-562 leukemia, in the test with LOX IMVI melanoma and in the test with RPMI-8226 leukemia was more than 100 µM throughout.

For the molecule `CC1=CC(=O)N(n2c(Cc3ccc(Cl)cc3)n[nH]c2=O)C1=O`, the TGI with MOLT-4 leukemia was 47.4 µM; with MDA-MB-231 breast it was more than 100 µM; with SF-295 CNS it was more than 100 µM; in the test with EKVX NSCLC, more than 100 µM; in the test with SK-MEL-5 melanoma, more than 100 µM; in the test with SR leukemia, 38.7 µM. Further, the TGI with MDA-N is more than 100 µM; in the test on HS 578T breast, more than 100 µM; in the test with SN12C renal it was more than 100 µM; in the test on K-562 leukemia it was 72.2 µM; with LOX IMVI melanoma, more than 100 µM; in the test with RPMI-8226 leukemia, 53.2 µM.

Consider `CC1=N[C@@](C)(C2CC3C=CC2C3=O)COC1=O` (some centres not stated), for which the TGI in the test with MOLT-4 leukemia, in the test on MDA-MB-231 breast, with SF-295 CNS, with EKVX NSCLC, in the test with SK-MEL-5 melanoma and in the test on SR leukemia was more than 100 µM in each case. Moreover, the TGI in the test on SK-MEL-28 melanoma, in the test on MDA-N, with HS 578T breast, with SN12C renal and with K-562 leukemia was more than 100 µM each time.

For the molecule `CCOC(=O)C(NC(=O)CC)(Nc1ccc(F)cc1F)C(F)(F)F` (configuration not stated), the TGI with MOLT-4 leukemia, in the test on EKVX NSCLC, in the test on SK-MEL-5 melanoma, in the test on SR leukemia, with SK-MEL-28 melanoma and in the test on MDA-N was more than 100 µM each time. Moreover, the TGI in the test with HS 578T breast, in the test with SN12C renal, with K-562 leukemia, in the test with LOX IMVI melanoma and in the test on RPMI-8226 leukemia was more than 100 µM in each case.

As to `O=C(NCCCN(CCCCN(CCCNC(=O)c1cc(S(=O)(=O)O)cc(O)c1O)C(=O)c1cc(S(=O)(=O)O)cc(O)c1O)C(=O)c1cc(S(=O)(=O)O)cc(O)c1O)c1cc(S(=O)(=O)O)cc(O)c1O`, the TGI with MDA-MB-231 breast, in the test with SK-MEL-5 melanoma, in the test on SR leukemia, in the test on SK-MEL-28 melanoma, in the test with MDA-N and in the test on HS 578T breast was more than 100 µM throughout. Also, the TGI with SN12C renal, in the test with K-562 leukemia and in the test with LOX IMVI melanoma was more than 100 µM throughout.

As for `Cc1ccc(C(=O)Oc2ccc(/C=C3\CCC/C(=C\c4ccc(OC(=O)c5ccc(C)cc5)cc4)C3=O)cc2)cc1`, the TGI with MOLT-4 leukemia, with MDA-MB-231 breast, in the test with SF-295 CNS, in the test with EKVX NSCLC, with SK-MEL-5 melanoma and with SR leukemia was more than 100 µM in each case. The TGI in the test on SK-MEL-28 melanoma, with MDA-N, in the test with HS 578T breast, in the test on SN12C renal, in the test with LOX IMVI melanoma and with RPMI-8226 leukemia was more than 100 µM each time.

For `O=S(=O)(CCC[C@H]1[C@@H](CCOCc2ccccc2)C2CCCN1O2)c1ccccc1` (some centres not stated), the TGI in the test on MOLT-4 leukemia, in the test with MDA-MB-231 breast, in the test on SF-295 CNS, with EKVX NSCLC, in the test with SK-MEL-5 melanoma and in the test with SR leukemia was more than 100 µM in each case. In addition, the TGI with SK-MEL-28 melanoma, in the test with MDA-N, in the test on HS 578T breast, in the test on SN12C renal and in the test on K-562 leukemia was more than 100 µM each time.

Turning to `COc1ccc2c(c1OC)C(=O)N/C2=C\c1c(CCN(C)C)cc2c(c1OC)OCO2`, the TGI in the test on MOLT-4 leukemia, in the test with MDA-MB-231 breast, in the test on SF-295 CNS, in the test with EKVX NSCLC, in the test on SK-MEL-5 melanoma and with SR leukemia was more than 100 µM throughout. Moreover, the TGI with SK-MEL-28 melanoma, in the test on MDA-N, in the test on HS 578T breast, in the test on SN12C renal, with K-562 leukemia and in the test with RPMI-8226 leukemia was more than 100 µM each time.

For the molecule `Cc1ccccc1Nc1nc(NNC(=O)Cc2ccccc2)nc(NNC(=O)c2ccncc2)n1`, the TGI in the test with MOLT-4 leukemia, in the test on MDA-MB-231 breast, in the test on EKVX NSCLC, in the test on SR leukemia, in the test on SK-MEL-28 melanoma and in the test with MDA-N was more than 10 µM each time. For the same molecule, the TGI with HS 578T breast, in the test on SN12C renal, in the test with K-562 leukemia, in the test on LOX IMVI melanoma and in the test with RPMI-8226 leukemia was more than 10 µM in each case.

Consider `CCOC(=O)N/N=C(\CC)OCC`, for which the TGI with MOLT-4 leukemia, with MDA-MB-231 breast, in the test with SF-295 CNS, in the test on EKVX NSCLC, in the test on SK-MEL-5 melanoma and with SR leukemia was more than 100 µM throughout. Moreover, the TGI with MDA-N, with HS 578T breast, with SN12C renal, in the test with K-562 leukemia and in the test on LOX IMVI melanoma was more than 100 µM each time.

For the molecule `CN1CC2=C(NC(=S)NC2c2ccccc2Cl)/C(=C/c2ccccc2Cl)C1` (configuration not stated), the TGI in the test with MOLT-4 leukemia was 75.5 µM; in the test with MDA-MB-231 breast it was more than 100 µM; with SF-295 CNS, more than 100 µM; in the test on EKVX NSCLC, more than 100 µM; in the test on SK-MEL-5 melanoma, 32.3 µM; in the test on SR leukemia, 70.5 µM. In addition, the TGI with SK-MEL-28 melanoma, in the test on MDA-N, in the test with HS 578T breast, with SN12C renal, in the test with K-562 leukemia and with LOX IMVI melanoma was more than 100 µM throughout.
